Measured values as given in patent publication US11266650B2, “Pharmaceutical composition for preventing and treating nonalcoholic steatohepatitis, hepatic fibrosis, and liver cirrhosis, comprising adenosine derivatives” (FUTURE MEDICINE CO., LTD., priority 2016, dated 2022).

What was measured:
[1] = target: T1, human A1 adenosine receptor (hA1) (Homo sapiens, UniProt P30542); test: Binding affinity for human A1 adenosine receptor expressed in CHO cells ([3H]CCPA); conditions: 10 μM (table footnote); read-out: percentage inhibition of specific binding, hA1
T1 construct: expressed in transfected cells; host or cells: CHO cells (ATCC No. CCL-61)
T1 sequence (P30542 1-326): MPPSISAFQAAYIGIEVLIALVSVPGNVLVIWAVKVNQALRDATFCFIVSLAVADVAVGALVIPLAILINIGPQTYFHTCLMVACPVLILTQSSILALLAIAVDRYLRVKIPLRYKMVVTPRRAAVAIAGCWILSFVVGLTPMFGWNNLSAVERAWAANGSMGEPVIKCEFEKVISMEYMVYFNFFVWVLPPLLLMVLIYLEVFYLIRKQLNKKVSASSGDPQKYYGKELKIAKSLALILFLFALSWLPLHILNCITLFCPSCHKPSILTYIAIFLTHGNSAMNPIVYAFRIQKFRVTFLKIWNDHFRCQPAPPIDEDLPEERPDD
Protocol: (§1) CHO cells (ATCC No. CCL-61), in which A1 and A3 adenosine receptors were expressed, were cultured in F-12 media (Gibco, U.S.A.) supplemented with 10% fetal bovine serum (FBS) and penicillin/streptomycin (100 units/ml and 100 g/ml), at 37° C. in a 5% CO2 atmosphere. […] Incubation for 1 hr in a 37° C. incubator was followed by rapid filtration in a vacuum using a cell collector (TOMTEC, U.S.A.). Subsequently, the test tubes were washed three times with 3 ml of the buffer before radioactivity was measured using a γ-counter. […] Ki for binding affinity was determined by subtracting the non-specific binding value from the total binding value. On the basis of the specific binding values, the samples were analyzed for binding affinity to various adenosine receptors.

[2] = target: T2, human A2A adenosine receptor (hA2A) (Homo sapiens, UniProt P29274); test: Binding affinity for A2A adenosine receptor expressed on HEK 293 cell ([3H]CGS-21680); conditions: 10 μM (table footnote); read-out: percentage inhibition of specific binding, hA2A
T2 construct: expressed in transfected cells; host or cells: HEK 293 cells
T2 sequence (P29274 whole entry): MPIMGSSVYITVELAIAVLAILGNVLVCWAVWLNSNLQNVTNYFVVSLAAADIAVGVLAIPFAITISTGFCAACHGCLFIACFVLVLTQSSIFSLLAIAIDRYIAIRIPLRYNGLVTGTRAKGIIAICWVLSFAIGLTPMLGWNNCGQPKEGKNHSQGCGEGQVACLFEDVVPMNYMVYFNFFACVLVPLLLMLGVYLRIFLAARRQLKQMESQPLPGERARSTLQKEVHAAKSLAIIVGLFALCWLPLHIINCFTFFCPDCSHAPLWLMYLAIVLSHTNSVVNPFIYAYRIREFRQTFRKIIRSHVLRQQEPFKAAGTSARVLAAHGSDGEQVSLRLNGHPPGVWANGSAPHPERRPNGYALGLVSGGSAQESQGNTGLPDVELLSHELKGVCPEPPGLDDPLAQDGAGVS
Protocol: Each of the compounds synthesized in the examples was measured for IC50 at least 6 different concentrations, and the measurements were analyzed using SigmaPlot software to determine Ki values.

[3] = target: T3, human A3 adenosine receptor (Homo sapiens, UniProt P0DMS8); test: Antagonism of Cl-IB-MECA and cAMP inhibition in CHO cells expressing human A3 adenosine receptor; type: cell-based; conditions: CHO cells expressing hA3 AR, various concentrations
T3 construct: expressed in transfected cells; host or cells: CHO cells
T3 sequence (P0DMS8 1-318): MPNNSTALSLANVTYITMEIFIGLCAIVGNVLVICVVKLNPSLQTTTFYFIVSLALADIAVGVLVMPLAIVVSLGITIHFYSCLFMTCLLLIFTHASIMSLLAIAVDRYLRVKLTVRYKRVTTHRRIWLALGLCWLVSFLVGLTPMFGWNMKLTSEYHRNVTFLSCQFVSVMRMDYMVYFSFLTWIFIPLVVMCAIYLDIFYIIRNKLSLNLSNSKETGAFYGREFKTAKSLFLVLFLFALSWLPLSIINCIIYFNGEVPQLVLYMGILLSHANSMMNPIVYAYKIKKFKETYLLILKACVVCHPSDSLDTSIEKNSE

[4] = target: T4, human A2B adenosine receptor (Homo sapiens, UniProt P29275); test: Agonist or antagonist activity on human A2B adenosine receptor; type: biochemical
T4 sequence (P29275 1-332): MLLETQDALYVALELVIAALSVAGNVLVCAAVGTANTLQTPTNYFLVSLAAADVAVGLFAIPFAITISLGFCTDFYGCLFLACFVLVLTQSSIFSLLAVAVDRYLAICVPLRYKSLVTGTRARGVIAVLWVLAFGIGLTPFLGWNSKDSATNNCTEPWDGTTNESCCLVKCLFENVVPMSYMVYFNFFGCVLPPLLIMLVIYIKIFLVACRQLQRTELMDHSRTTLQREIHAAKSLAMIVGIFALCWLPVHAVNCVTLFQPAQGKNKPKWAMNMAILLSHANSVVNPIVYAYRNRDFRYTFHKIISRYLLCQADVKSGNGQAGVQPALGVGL

[5] = tested on: TPA-induced inflammation of the mouse ear; test: Anti-inflammatory activity, TPA-treated mouse ear; type: in vivo, ICR mice; conditions: for anti-inflammatory activity relative to Examples 2 to 4: 0.5% in acetone, on the basis of inhibition percentage; for percentage of inflammation inhibition: topical, mouse ear
Protocol: The adenosine derivatives of the present invention were examined for anti-inflammatory activity in the following animal test. Seven-week-old male ICR mice were treated with TPA (12-O-tetradecanoylphorbol-13-acetate, 20 μl) in the right ear. […] Hydrocortisone was used at the same concentration as a control.
6 hrs after treatment with TPA, the mice were secondarily treated with the adenosine derivatives of the present invention. 24 hrs after TPA treatment, test animals were euthanized using a cervical dislocation method. Samples were obtained from the right ear using a 6 mm diameter punch. The activity was observed by measuring the ear sample using a microbalance. Percentages of inhibition were calculated using the following Equation 1. The compositions and amounts used in these experiments are summarized in Tables 2 to 5 and the anti-inflammatory activities thereof are shown in FIGS. 2 to 5.

[6] = tested on: NASH- or NAFLD-induced mice; test: Efficacy test on NASH or NAFLD and liver fibrosis in NASH- or NAFLD-induced mice; type: in vivo; conditions: oral once a day, 6 to 10 weeks of age; vs negative control; HE staining
Protocol: As a comparison group, eight normal mice were given no treatment until 10 weeks of age. As a positive control group, eight NASH- or NAFLD-induced mice were orally administered with 10 mg/kg of telmisartan (i.e., a hypertension medication) once a day for six to 10 weeks of age. As a negative control group, eight NASH- or NAFLD-induced mice were orally administered with only 10 mL/kg of 0.5% methyl cellulose (i.e., a vehicle) once a day for 6 to 10 weeks of age.
Then, for the livers of the experimental animals at 10 weeks of age, the degree of steatosis, inflammation and ballooning were measured using HE staining, and the area of fibrosis was observed and measured using Sirius red staining.

[7] = target: T5, human A3 adenosine receptor (hA3 AR) (Homo sapiens, UniProt P0DMS8); test: Binding affinity for human A3 adenosine receptor expressed in CHO cells ([125I]AB-MECA); conditions: for Ki: ± SEM, [125I]AB-MECA, CHO cells
T5 construct: expressed in transfected cells; host or cells: CHO cells (ATCC No. CCL-61)
T5 sequence (P0DMS8 1-318): T3 sequence (P0DMS8 1-318)
Protocol: as §1

[8] = 0.5% in distilled water:acetone (1:4)

| SMILES | melting point | inhibition at 10 µM [1] | inhibition [2] | also measured |
| --- | --- | --- | --- | --- |
| O[C@@H]1[C@H](O)CS[C@H]1n1cnc2c(NCc3cccc(I)c3)ncnc21 [Example 14, (2R,3R,4S)-2-(6-(3-Iodobenzylamino)-9H-purin-9-yl)tetrahydrothiophen-3,4-diol] | 198.8 to 199.8 °C | – | – | – |
| O[C@@H]1[C@H](O)CS[C@H]1n1cnc2c(NCc3cccc(Br)c3)nc(Cl)nc21 [Example 3, (2R,3R,4S)-2-(2-Chloro-6-(3-bromobenzylamino)-9H-purin-9-yl)tetrahydrothiophen-3,4-diol] | 184 to 185 °C | 34.2% | 18.4% | – |
| O[C@@H]1[C@H](O)CS[C@H]1n1cnc2c(NCc3cccc(Br)c3)ncnc21 [Example 13, (2R,3R,4S)-2-(6-(3-bromobenzylamino)-9H-purin-9-yl)tetrahydrothiophen-3,4-diol] | 183 to 184 °C | – | – | – |
| O[C@@H]1[C@H](O)CS[C@H]1n1cnc2c(NCc3cccc(I)c3)nc(Cl)nc21 [Example 4, (2R,3R,4S)-2-(2-Chloro-6-(3-iodobenzylamino)-9H-purin-9-yl)tetrahydrothiophen-3,4-diol] | – | – | – | inhibition of the agonist effect of Cl-IB-MECA [3]: inhibited in a dose-dependent manner; agonist or antagonist on human A2B adenosine receptor [4]: not observed as an agonist or antagonist |
| COc1ccc(Cl)cc1CNc1nc(Cl)nc2c1ncn2[C@@H]1SC[C@@H](O)[C@H]1O [Example 6, (2R,3R,4S)-2-(2-Chloro-6-(5-chloro-2-methoxybenzylamino)-9H-purin-9-yl)tetrahydrothiophen-3,4-diol] | 188.8 to 189.8 °C | 23.8% | – | anti-inflammatory activity relative to Examples 2 to 4 [5]: four or more times that of the compounds of Examples 2 to 4 |
| CCCc1nc2c(C)cc(-c3nc4ccccc4n3C)cc2n1Cc1ccc(-c2ccccc2C(=O)O)cc1 [telmisartan] | – | – | – | steatosis score of the liver [6]: no significant decrease in steatosis was observed |
| CNc1nc(Cl)nc2c1ncn2[C@@H]1SC[C@H](O)[C@@H]1O [Example 10, 2-(2-Chloro-6-methylamino-purin-9-yl)(2R,3 S,4R)-tetrahydrothiophen-3,4-diol] | – | 55.4 ± 1.8% | 45 ± 1.4% | Ki [7]: 3.69 ± 0.25 nM |
| O[C@@H]1[C@H](O)CS[C@H]1n1cnc2c(NCc3cccc(F)c3)nc(Cl)nc21 [Example 1, (2R,3R,4S)-2-(2-Chloro-6-(3-fluorobenzylamino)-9H-purin-9-yl)tetrahydrothiophen-3,4-diol] | 183.2 to 183.5 °C | 19.8% | 47.6% | anti-inflammatory activity relative to Examples 2 to 4 [5]: four or more times that of the compounds of Examples 2 to 4 |
| OC1CO[C@@H](n2cnc3c(NCc4cccc(I)c4)nc(Cl)nc32)C1O (stereo partly drawn) [Example 16, (2R,3R,4R)-2-(6-(3-iodobenzylamino)-2-chloro-9H-purin-9-yl)tetrahydrofuro-3,4-diol] | 195.5 to 195.8 °C | 37.7% | 28.6% | Ki [7]: 42.9 ± 8.9 nM; percentage of inflammation inhibition ([5]; 0.5% in DMSO:acetone (1:9)): 79% |
| O=C(O)c1cccc(CNc2nc(Cl)nc3c2ncn3[C@@H]2SC[C@@H](O)[C@H]2O)c1 [Example 9, 3-((2-chloro-9-((2R,3R,4S)-3,4-dihydroxytetrahydrothiophen-2-yl)-9H-purine-6-ylamino)methyl)benzoic acid] | 254 to 256.9 °C | 13.1% | -0.18% | inhibition at 10 µM ([7]; 10 μM (table footnote), read-out: percentage inhibition of specific binding, hA3): 41.5% |
| O[C@@H]1[C@H](O)CS[C@H]1n1cnc2c(NCc3cccc4ccccc34)nc(Cl)nc21 [Example 8, (2R,3R,4S)-2-(2-Chloro-6-(naphthalen-1-ylmethylamino)-9H-purin-9-yl)tetrahydrothiophen-3,4-diol] | 226.3 °C (dec.) | 22% | -8.3% | percentage of inflammation inhibition [5, 8]: 53% |
| COc1ccccc1CNc1nc(Cl)nc2c1ncn2[C@@H]1SC[C@@H](O)[C@H]1O [Example 7, (2R,3R,4S)-2-(2-chloro-6-(2-methoxybenzylamino)-9H-purin-9-yl)tetrahydrothiophen-3,4-diol] | 188 °C | 9.4% | 17.5% | – |
| O[C@@H]1[C@H](O)CS[C@H]1n1cnc2c(NCc3ccccc3Cl)nc(Cl)nc21 [Example 5, (2R,3R,4S)-2-(2-Chloro-6-(2-chlorobenzylamino)-9H-purin-9-yl)tetrahydrothiophen-3,4-diol] | 198.7 to 199.7 °C | – | – | inhibition [1]: 12.8%; percentage of inflammation inhibition [5, 8]: 17% |
| O[C@@H]1[C@H](O)CO[C@H]1n1cnc2c(NCc3cccc(Br)c3)nc(Cl)nc21 [Example 15, (2R,3R,4R)-2-(6-(3-bromobenzylamino)-2-chloro-9H-purin-9-yl)tetrahydrofuran-3,4-diol] | 181.5 to 181.7 °C | 39.8% | 22.8% | percentage of inflammation inhibition ([5]; 0.5% in DMSO:acetone (1:9)): 59% |
